The values that follow are results of earlier work, collected in US8574562B2, “Microemulsion pharmaceutical composition comprising a macrolide immunosuppressant drug” (Novaliq GmbH, priority 2009, dated 2013).

SMILES strings stand for the structures.

The conditions of data set [1]: methanol, ethanol, acetone, chloroform, ethyl acetate, diethyl ether.
The conditions of data set [2]: relative to ciclosporin.
The conditions of data set [3]: relative to ciclosporin. The source holds these as a separate data set.

Turning to `C=CC[C@@H]1/C=C(\C)C[C@H](C)C[C@H](OC)[C@H]2O[C@@](O)(C(=O)C(=O)N3CCCC[C@H]3C(=O)O[C@H](/C(C)=C/[C@@H]3CC[C@@H](O)[C@H](OC)C3)[C@H](C)[C@@H](O)CC1=O)[C@H](C)C[C@@H]2OC` [Tacrolimus], the “solubility in organic solvents” value in data set [1] is given as “soluble”. In data set [2], the “immunosuppressive activity in vitro, higher than that of ciclosporin” value was 50-100 times. In addition, in data set [3], the “immunosuppressive activity in vivo, higher than that of ciclosporin” value is 10-20 times.
